In patent US20220340983A1, “SYSTEMS AND ASSAYS FOR IDENTIFYING PU.1 INHIBITORS” (Massachustts Institute of Technology, priority 2019, published 2022):

Columns and labels:
iPSC-microglia = assay: Uptake of pHrodo-GFP-labelled mouse myelin particles in iPSC-microglia; format: cell-based, human; details: concentration response curve, after 48 h
Description: FIGS. 12A-12B show the effects of A11 on cell viability and myelin uptake after 48 h.
A concentration response curve was performed for cell viability and myelin uptake (FIG. 12A) in iPSC-microglia. Myelin uptake was measured by uptake of pHrodo-GFP-labelled wild-type mouse myelin particles (FIG. 12B). […] The IC50s obtained for these assays was in the low nM range, matching the data obtained in BV2 cells.

PU.1 = biological target: T1, PU.1 (Mus musculus, UniProt P17433); assay: Luciferase assay (luminescence) in BV2 PU.1-Luciferase reporter cells; format: cell-based; details: luminescence reduction in BV2 PU.1-Luciferase cells, concentration-response, Hill's equation
T1 construct: endogenous in cells; host or cells: BV2 PU.1-Luciferase (mouse microglial BV2 with a 5xLBB-luciferase reporter integrated at ROSA26)

[1] = tested on: PU.1 dependent gene expression; assay: RT-qPCR of mRNA levels in BV2 PU.1-Luciferase cells (validation round 3); format: cell-based, mouse; details: 2-day treatment

## O=S(=O)(NCc1ccncc1)c1ccc(C2CCCCC2)cc1 [Compound A11]
iPSC-microglia
  IC50 of myelin uptake: low nM range
  maximal possible reduction in myelin uptake: 50%
PU.1
  IC50: 2 nM
[1]
  mRNA levels Apoe: 1.522 multiples of 1×
  mRNA levels IL1β: 0.418 multiples of 1×
  mRNA levels Lucif.: 0.376 multiples of 1×
  mRNA levels Spi1: 1.001 multiples of 1×
  mRNA levels Trem2: 2.051 multiples of 1×
  mRNA levels Tyrobp: 2.101 multiples of 1×
